The numbers were not newly measured in patent publication US9662315B2, “Ameliorating drug-induced elevations in blood pressure by adjunctive use of antihypertensive drugs” (Kitov Pharmaceuticals Ltd., priority 2008, dated 2017), which cites them from elsewhere.

For this series the following is noted: per FDA approved drug labeling; rofecoxib compared with placebo control patients.

Molecules are shown by their SMILES.

Take `Cc1ccc(-c2cc(C(F)(F)F)nn2-c2ccc(S(N)(=O)=O)cc2)cc1` [celecoxib]: the “high blood pressure / hypertension rate in treated patients” value is reported as “increased rate of hypertension”.
In the case of `CS(=O)(=O)c1ccc(C2=C(c3ccccc3)C(=O)OC2)cc1` [rofecoxib], the “high blood pressure / hypertension rate in treated patients” value is recorded as “occurring more frequently”.
